From patent US7482351B2, “4-pyrimidineamine compounds and their uses as anti-proliferative agents” (Rigel Pharmaceuticals, Inc., priority 2004, dated 2009) come the findings set out here.

pIC50: −log10 of the molar value.

Assay type in all cases: cell-based
Test [1] has as its system DLD-1 (colorectal adenocarcinoma) cells. The test is described as follows: in vitro inhibition of DLD-1 cells. As to conditions: DLD-1 (colorectal adenocarcinoma) cells in vitro. How it is done: (§1) Various exemplary 5-fluoro-4-pyrmidineamine compounds (illustrated in TABLE 1, infra) were synthesized as described herein and tested for their ability to inhibit A549 (lung carcinoma), DLD-1 (colorectal adenocarcinoma), H1299 (non small cell lung carcinoma), HCT116 (colorectal carcinoma), HELA (cervical adenocarcinoma) and/or U2OS (bone osterosarcoma) cells in vitro. […] A blank indicates the particular compound was […].

Test [2] has as its system Miapaca2 (pancreatic carcinoma). Kind of test: 9-point anti-proliferation assay, Miapaca2. As to conditions: Miapaca2, 9-point anti-proliferation assay.
For test [3], the system named is HCT116 (colorectal carcinoma) cells. The test is described as follows: in vitro inhibition of HCT116 cells. How it is done: as §1
Test [4] deals with HCT116. The test is described as follows: 9-point anti-proliferation assay, HCT116. As to conditions: HCT116, 9-point anti-proliferation assay.
The subject of test [5] is H1299 (non small cell lung carcinoma) cells. The test is described as follows: in vitro inhibition of H1299 cells. How it is done: as §1
The test system of test [6] is A549. Kind of test: 9-point anti-proliferation assay, A549. The following applies: A549, 9-point anti-proliferation assay.
The subject of test [7] is HELA (cervical adenocarcinoma) cells. Kind of test: in vitro inhibition of HELA cells. How it is done: as §1
Test [8] concerns Colo205 (colorectal adenocarcinoma). Kind of test: 9-point anti-proliferation assay, Colo205. The following applies: Colo205, 9-point anti-proliferation assay.
Test [9] relates to U2OS (bone osterosarcoma) cells. Kind of test: in vitro inhibition of U2OS cells. How it is done:
as §1

Test [10] deals with A549 (lung carcinoma) cells. The test is described as follows: in vitro inhibition of A549 cells. The protocol:
as §1

What is called pIC50 is the IC50 on a negative log10 scale, so that one unit is a factor of ten. The low end stands for a large IC50, the high end for a small IC50. On to `CN(c1ccc2c(c1)OCCO2)c1nc(-c2ccsc2)ncc1F` [Compound 25, N4-(3,4-Ethylenedioxyphenyl)-5-fluoro-N-4-methyl-2-(3-thienyl)-4-pyrimidineamine], for which the pIC50 in test [1] was no less than 6.00; in [2], greater than 6.00; in [3] it was no less than 6.00; in [4] it was greater than 6.00; in test [5] it was no less than 6.00; in test [6], greater than 6.00. Besides, the pIC50 in test [7] was no less than 6.00; in [8] it was greater than 6.00; in test [9] it was no less than 6.00; in [10], no less than 6.00.
